Measurements from patent US20250304560A1, “MODULATORS OF NLRP3 INFLAMMASOME AND RELATED PRODUCTS AND METHODS” (Neumora Therapeutics, Inc., priority 2022, published 2025).
Like-named read-outs stand apart in the source and are kept apart here.

Key:
NLRP3 inflammasome = NLRP3 inflammasome (Homo sapiens, UniProt Q96P20); experiment: NLRP3 inflammasome activation in THP1 macrophages, IL-1β AlphaLISA
IL-6 = IL-6 AlphaLISA in LPS-primed THP1 macrophages
[1] = IL-1β Activity (nM), THP1 macrophages, PMA, LPS priming, nigericin 6.7 uM activation
[2] = Homo sapiens, THP-1, read-out: IL-6 Activity (μM), THP1 macrophages, PMA, LPS priming, nigericin 6.7 uM
[3] = Homo sapiens, THP-1, read-out: IL-6 Activity (μM)
[4] = read-out: IL-6 Activity, THP1 macrophages, PMA, LPS priming, nigericin 6.7 uM

NLRP3 inflammasome, sequence (Q96P20 whole entry): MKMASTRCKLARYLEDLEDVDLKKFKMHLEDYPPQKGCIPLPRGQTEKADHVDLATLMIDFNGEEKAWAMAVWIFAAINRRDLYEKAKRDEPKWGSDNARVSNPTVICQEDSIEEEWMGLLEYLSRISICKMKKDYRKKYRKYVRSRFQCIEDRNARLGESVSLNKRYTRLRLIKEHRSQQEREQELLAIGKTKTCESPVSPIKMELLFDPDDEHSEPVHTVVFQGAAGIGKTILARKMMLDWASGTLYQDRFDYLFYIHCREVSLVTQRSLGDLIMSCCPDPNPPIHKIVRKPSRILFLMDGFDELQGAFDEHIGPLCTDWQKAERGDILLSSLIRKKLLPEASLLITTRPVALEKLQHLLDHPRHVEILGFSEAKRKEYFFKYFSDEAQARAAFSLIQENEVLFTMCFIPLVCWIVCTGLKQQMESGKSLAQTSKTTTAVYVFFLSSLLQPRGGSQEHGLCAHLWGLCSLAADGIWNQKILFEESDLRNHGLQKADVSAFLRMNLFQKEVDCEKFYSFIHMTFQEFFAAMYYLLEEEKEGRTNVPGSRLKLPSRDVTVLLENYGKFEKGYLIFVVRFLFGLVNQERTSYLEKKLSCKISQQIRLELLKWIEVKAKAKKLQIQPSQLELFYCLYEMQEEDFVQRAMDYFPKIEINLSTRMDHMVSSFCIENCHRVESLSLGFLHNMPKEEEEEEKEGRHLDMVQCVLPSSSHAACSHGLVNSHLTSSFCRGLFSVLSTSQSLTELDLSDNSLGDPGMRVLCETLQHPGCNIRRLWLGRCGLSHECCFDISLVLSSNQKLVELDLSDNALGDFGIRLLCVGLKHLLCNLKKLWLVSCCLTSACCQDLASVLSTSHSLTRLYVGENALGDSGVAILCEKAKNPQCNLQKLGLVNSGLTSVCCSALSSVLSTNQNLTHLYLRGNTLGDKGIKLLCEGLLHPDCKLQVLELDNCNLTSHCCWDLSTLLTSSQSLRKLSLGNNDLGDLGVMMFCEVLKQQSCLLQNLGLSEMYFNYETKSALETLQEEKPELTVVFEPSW

IC50 (NLRP3 inflammasome; [1]) [nM] | IC50 (IL-6; [2]) [µM] | IC50 (NLRP3 inflammasome) [nM] | IC50 (IL-6; [3]) [µM] | IC50 (IL-6; [4]) [µM] | SMILES
1 to 10 | > 10 | – | – | – | Cc1cccc(-c2ccc(N[C@@H]3CCCN(C)C3)nn2)c1O [compound 5]
< 1 | 5 to 10 | – | – | – | Cc1cc(F)cc(O)c1-c1ccc(N[C@@H]2CCCN(C)C2)nn1 [compound 6]
10 to 100 | 5 to 10 | – | – | – | Cc1c(F)ccc(-c2ccc(N[C@@H]3CCCN(C)C3)nn2)c1O [compound 10]
10 to 100 | > 10 | – | – | – | CCc1ccc(-c2ccc(N[C@@H]3CCCN(C)C3)nn2)c(O)c1 [compound 14]
> 1000 | > 10 | – | – | – | CN1CCC[C@@H](N(C)c2ccc(-c3ccccc3O)nn2)C1 [compound 17]
10 to 100 | 1 to 5 | – | – | – | Cc1c(F)ccc(-c2ccc(N(C)[C@@H]3CCCN(C)C3)nn2)c1O [compound 24]
> 1000 | 1 to 5 | – | – | – | Cc1cc(-c2ccc(N(C)[C@@H]3CCCN(C)C3)nn2)c(O)cc1F [compound 25]
> 1000 | > 10 | – | – | – | CN1CC[C@@H](Nc2ccc(-c3ccccc3O)nn2)C1 [compound 31]
– | – | 10 to 100 | 5 to 10 | – | Cc1cc(-c2ccc(F)cc2O)nnc1O[C@@H]1CCCN(C)C1 [compound 35]
– | – | 500 to 1000 | > 10 | – | Cc1cc(C[C@@H]2CCCN(C)C2)nnc1-c1ccc(C(F)(F)F)cc1O [compound 37]
1 to 10 | > 10 | – | – | – | Cc1cc(N[C@@H]2CCCN(CCF)C2)nnc1-c1ccc(F)cc1O [compound 44]
10 to 100 | > 10 | – | – | – | Cc1cc(N[C@@H]2C[C@H](F)CN(C)C2)nnc1-c1ccc(F)cc1O [compound 47]
10 to 100 | > 10 | – | – | – | Cc1cc(N[C@H]2CN(C)CC[C@@H]2F)nnc1-c1ccc(F)cc1O [compound 48]
10 to 100 | > 10 | – | – | – | Cc1cc(N[C@H]2CN(C)CC[C@H]2F)nnc1-c1ccccc1O [compound 50]
< 1 | 5 to 10 | – | – | – | CCN1CCC[C@@H](Nc2cc(C)c(-c3ccc(F)cc3O)nn2)C1 [compound 58]
< 1 | > 10 | – | – | – | CCN1CCC[C@@H](Nc2ccc(-c3c(C)cc(F)cc3O)nn2)C1 [compound 60]
1 to 10 | > 10 | – | – | – | Cc1cc(N[C@@H]2CCCN(C)C2)nnc1-c1c(C)cc(F)cc1O [compound 62]
1 to 10 | > 10 | – | – | – | Cc1cc(-c2nnc(N[C@@H]3CCCN(C)C3)cc2C)c(O)cc1F [compound 65]
100 to 500 | 5 to 10 | – | – | – | Cc1cc(-c2nnc(N(C)[C@@H]3CCCN(C)C3)cc2C)c(O)cc1F [compound 66]
– | > 10 | – | – | – | Cc1cc(-c2ccc(C(F)(F)F)cc2O)nnc1N[C@@H]1CCCN(C)C1 [compound 74]
1 to 10 | – | – | – | – | Cc1cc(-c2ccc(Cl)cc2O)nnc1N[C@@H]1CCCN(C)C1 [compound 83]

The remaining lines, values behind:

SMILES | IC50 (NLRP3 inflammasome; [1]) [nM] | IC50 (IL-6; [2]) [µM] | IC50 (NLRP3 inflammasome) [nM] | IC50 (IL-6; [3]) [µM] | IC50 (IL-6; [4]) [µM]
Cc1ccc(O)c(-c2ccc(N[C@@H]3CCCN(C)C3)nn2)c1 [compound 4] | 100 to 500 | > 10 | – | – | –
Cc1cc(-c2ccccc2O)nnc1N[C@@H]1CCCN(C)C1 [compound 8] | 1 to 10 | > 10 | – | – | –
Cc1cc(-c2ccc(N[C@@H]3CCCN(C)C3)nn2)c(O)cc1F [compound 9] | 100 to 500 | > 10 | – | – | –
CCc1cc(C)c(-c2ccc(N[C@@H]3CCCN(C)C3)nn2)c(O)c1 [compound 12] | < 1 | > 10 | – | – | –
Cc1cc(C2CC2)cc(O)c1-c1ccc(N[C@@H]2CCCN(C)C2)nn1 [compound 13] | – | – | 1 to 10 | > 10 | –
CCc1ccc(-c2cc(C)c(N[C@@H]3CCCN(C)C3)nn2)c(O)c1 [compound 16] | 1 to 10 | – | – | – | –
Cc1cccc(-c2ccc(N(C)[C@@H]3CCCN(C)C3)nn2)c1O [compound 18] | > 1000 | 5 to 10 | – | – | –
Cc1ccc(O)c(-c2ccc(N(C)[C@@H]3CCCN(C)C3)nn2)c1 [compound 19] | > 1000 | 5 to 10 | – | – | –
CN1CCC[C@@H](N(C)c2ccc(-c3ccc(F)cc3O)nn2)C1 [compound 20] | > 1000 | 5 to 10 | – | – | –
Cc1cc(N(C)[C@@H]2CCCN(C)C2)nnc1-c1ccccc1O [compound 23] | 10 to 100 | > 10 | – | – | –
Cc1cc(N(C)[C@@H]2CCCN(C)C2)nnc1-c1ccc(F)cc1O [compound 26] | 1 to 10 | > 10 | – | – | –
CCc1ccc(-c2ccc(N(C)[C@@H]3CCCN(C)C3)nn2)c(O)c1 [compound 27] | 10 to 100 | > 10 | – | – | –
Cc1cc(N(C)[C@@H]2CCCN(C)C2)nnc1-c1ccc(C2CC2)cc1O [compound 28] | – | – | < 1 | < 1 | –
CN1CC[C@@H](Nc2ccc(-c3ccc(F)cc3O)nn2)C1 [compound 30] | > 1000 | > 10 | – | – | –
CN1CC[C@@H](N(C)c2ccc(-c3ccc(F)cc3O)nn2)C1 [compound 32] | – | – | > 1000 | > 10 | –
CN1CC[C@@H](N(C)c2ccc(-c3ccccc3O)nn2)C1 [compound 33] | – | – | > 1000 | > 10 | –
Cc1cc(C[C@@H]2CCCN(C)C2)nnc1-c1ccc(F)cc1O [compound 36, (S)-5-fluoro-2-(4-methyl-6-((1-methylpiperidin-3-yl)methyl)pyridazin-3-yl) phenol] | – | – | 10 to 100 | > 10 | –

SMILES | IC50 (NLRP3 inflammasome; [1]) [nM] | IC50 (IL-6; [2]) [µM] | IC50 (NLRP3 inflammasome) [nM] | IC50 (IL-6; [3]) [µM] | IC50 (IL-6; [4]) [µM]
Cc1cc(N[C@@H]2CCCN(C)C2)nnc1-c1ccc(F)c(C)c1O [compound 38] | 1 to 10 | – | – | – | 1 to 5
Cc1cc(N[C@@H]2CCCN(CCF)C2)nnc1-c1ccccc1O [compound 39] | 10 to 100 | > 10 | – | – | –
Cc1cc(N[C@H]2CN(C)CC(F)(F)C2)nnc1-c1ccccc1O [compound 40] | 500 to 1000 | > 10 | – | – | –
Cc1cc(N[C@@H]2C[C@@H](F)CN(C)C2)nnc1-c1ccccc1O [compound 41] | 10 to 100 | – | – | – | –
Cc1cc(N[C@@H]2C[C@H](F)CN(C)C2)nnc1-c1ccccc1O [compound 42] | 10 to 100 | > 10 | – | – | –
Cc1cc(N[C@H]2CN(C)CC[C@@H]2F)nnc1-c1ccccc1O [compound 43] | 10 to 100 | > 10 | – | – | –
Cc1cc(N[C@H]2CN(C)CC(F)(F)C2)nnc1-c1ccc(F)cc1O [compound 45] | 100 to 500 | > 10 | – | – | –
Cc1cc(N[C@H]2CN(C)CC[C@H]2F)nnc1-c1ccc(F)cc1O [compound 49] | 10 to 100 | > 10 | – | – | –
CN1CCC[C@@H](Nc2cc(F)c(-c3ccccc3O)nn2)C1 [compound 52] | 1 to 10 | > 10 | – | – | –
CCN1CCC[C@@H](Nc2cc(C)c(-c3ccccc3O)nn2)C1 [compound 56] | < 1 | > 10 | – | – | –
Cc1cc(N[C@@H]2CCCN(C(C)C)C2)nnc1-c1ccccc1O [compound 57] | < 1 | 5 to 10 | – | – | –
Cc1cc(N[C@@H]2CCCN(C(C)C)C2)nnc1-c1ccc(F)cc1O [compound 59] | < 1 | 5 to 10 | – | – | –
Cc1cc(N[C@@H]2CCCN(C)C2)nnc1-c1ccc(F)c(C)c1O [compound 63] | < 1 | – | – | – | > 10
Cc1cc(N(C)[C@@H]2CCCN(C)C2)nnc1-c1ccc(F)c(C)c1O [compound 64] | 1 to 10 | > 10 | – | – | –
Cc1cc(C(F)(F)F)cc(O)c1-c1ccc(N[C@@H]2CCCN(C)C2)nn1 [compound 75] | – | – | – | > 10 | –
Cc1cc(NC[C@H]2COCCO2)nnc1-c1ccccc1O [compound 119] | – | – | > 1000 | – | –
